Results: US20240391954A1, “MC4R AGONIST PEPTIDES” (The Regents of the University of Michigan, priority 2021, published 2024)
Positions of bridges follow the written chain, without caps; N, C: chain ends. Non-standard residues stand in square brackets, D forms with d. Residues, ends and D or L forms follow the SMILES beside them. Phe(4-Br) = N[C@@H](Cc1ccc(Br)cc1)C(=O)O; dPhe(4-Br) = N[C@H](Cc1ccc(Br)cc1)C(=O)O; NMeR = CN[C@@H](CCCNC(=N)N)C(=O)O; Nle = CCCC[C@H](N)C(=O)O

Tests used:
human MC4R = molecular target: T1, human MC4R (Homo sapiens, UniProt P32245); experiment: split-luciferase cAMP sensor assay, agonist mode (measurement window 1), hMC4R; format: cell-based; conditions: for Emax / EC50: agonist mode, hMC4R stable cell line; for Emax: read-out: MC4R cAMP % max activation; for EC50: read-out: MC4R cAMP EC50
T1 construct: host or cells: HEK-293 cells stably expressing the GScAMP22F split-luciferase cAMP sensor and hMC4R, G418 selection
T1 sequence (P32245 whole entry): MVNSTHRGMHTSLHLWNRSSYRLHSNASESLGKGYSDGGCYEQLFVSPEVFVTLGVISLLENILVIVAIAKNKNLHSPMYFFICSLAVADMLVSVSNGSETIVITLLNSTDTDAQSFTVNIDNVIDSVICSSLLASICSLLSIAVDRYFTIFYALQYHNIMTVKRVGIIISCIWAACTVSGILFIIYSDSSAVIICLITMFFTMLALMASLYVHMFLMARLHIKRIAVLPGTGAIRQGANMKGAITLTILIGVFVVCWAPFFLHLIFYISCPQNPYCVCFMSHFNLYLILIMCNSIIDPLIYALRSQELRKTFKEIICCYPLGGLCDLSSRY
Method: (§1) The stable cell lines were grown and maintained in selection media consisting of Dulbecco's modified Eagle media (DMEM) with 4.5 g/l D-glucose, and 4 mM L-glutamine (Thermo Fisher Scientific, Waltham, MA), supplemented with 10% fetal bovine serum, 100 units/ml penicillin, 100 μg/ml streptomycin, 2.5 μg/ml amphotericin B, 200 μg/ml hygromycin B (for positive selection of the GScAMP22f luciferase reporter), and Geneticin™ (G418) 700 μg/ml (for MC3R or MC4R selection). Actual serum concentration during the assay is estimated to be about 1%. Cell line identity is routinely verified by qPCR and MC3R-and MC4R-specific oligonucleotides.
(§2) The assay for the determination of the cAMP response in live cells was described previously. […] Cells were seeded at a density of 20,000 cells per well using 384-well poly-D lysine-coated, clear bottom, and black-wall assay plates (Corning Inc. Corning, NJ). Cells were allowed to attach to the plates for 18 to 24 h after which growth media was removed and 20 μl of 4% D-luciferin (Promega) in CO2 independent, serum-free medium (Thermo Fisher Scientific) was added to each well. […] Intracellular cAMP levels were measured using an FDSS 7000EX Functional Drug Screening System (Hamamatsu Photonics, Hamamatsu, Japan) in the Center for Chemical Genomics at the Life Sciences Institute. This instrument allowed the in-line addition of test-peptides and receptor agonists while simultaneously acquiring the luminescence signal from live cells. […] A submaximal forskolin (20 μM) concentration was also included to serve as a normalization reference to account for cell number variations and differences in assay transducer efficiency between cell lines.
(§3) With this set up it was possible to evaluate the direct effect of the test-peptides on the MC3R and MC4R cell lines during measurement window 1, while the antagonist profile in the presence of EC90 α-MSH was determined on measurement window 2. […] EC50 or IC50 potency values were determined by non-linear regression by fitting the data to a sigmoid four-parameter variable slope model using the GraphPad Prism version 8.4 software package (San Diego CA).

human MC3R = molecular target: T2, human MC3R (Homo sapiens, UniProt P41968); experiment: split-luciferase cAMP sensor assay, agonist mode (measurement window 1), hMC3R; format: cell-based; conditions: agonist mode, hMC3R stable cell line; for Emax: read-out: MC3R cAMP % max activation; for EC50: read-out: MC3R cAMP EC50
T2 construct: expressed in transfected cells; host or cells: HEK-293 cells stably expressing the GScAMP22F split-luciferase cAMP sensor (parent reporter line from Promega); MC3R clone generated in-house, G418 selection
T2 sequence (P41968 whole entry): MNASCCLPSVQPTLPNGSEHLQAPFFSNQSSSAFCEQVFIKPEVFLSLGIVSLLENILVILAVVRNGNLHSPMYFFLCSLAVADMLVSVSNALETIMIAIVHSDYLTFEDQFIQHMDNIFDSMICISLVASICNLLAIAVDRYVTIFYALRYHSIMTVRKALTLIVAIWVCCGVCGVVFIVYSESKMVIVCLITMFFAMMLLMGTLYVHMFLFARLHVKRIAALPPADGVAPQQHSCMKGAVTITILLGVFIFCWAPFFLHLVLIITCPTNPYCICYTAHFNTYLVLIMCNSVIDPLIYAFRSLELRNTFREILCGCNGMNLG
Method: as §1, §2, §3

| SMILES | MC4R selectivity vs MC1R (human MC4R) | MC4R selectivity vs MC3R (human MC4R) | Emax (human MC4R) [%] | Emax (human MC3R) [%] | EC50 (human MC3R) [nM] | EC50 (human MC4R) [nM] |
| --- | --- | --- | --- | --- | --- | --- |
| CC(=O)N[C@H]1CSSC[C@@H](C(N)=O)NC(=O)[C@H](Cc2ccccc2)NC(=O)[C@H](CCCNC(=N)N)NC(=O)[C@@H](Cc2ccc(Br)cc2)NC(=O)[C@H](CCCNC(=N)N)NC(=O)CNC1=O [CTX-1640, cyclo(Cys-Gly-Arg-D-Phe(4-Br)-Arg-Phe-Cys)] (Ac-CGR[dPhe(4-Br)]RFC-NH2; disulfide 1-7 (inferred)) | 3.72 | 3.09 | 100 | 27 | 10 | – |
| CC(=O)N[C@@H](CCCNC(=N)N)C(=O)N[C@H]1CSSC[C@@H](C(N)=O)NC(=O)[C@H](Cc2c[nH]c3ccccc23)NC(=O)[C@H](CCCNC(=N)N)NC(=O)[C@H](Cc2ccc(Br)cc2)NC(=O)[C@H](CCCNC(=N)N)NC(=O)[C@@H](C)NC1=O [CTX-1212] (Ac-RC[dA]R[Phe(4-Br)]RWC-NH2; disulfide 2-8) | 0.07 | 0.07 | 55 | 0.1 | 28 | – |
| CC(=O)N[C@@H](CCCNC(=N)N)C(=O)N[C@H]1CSSC[C@@H](C(N)=O)NC(=O)[C@H](Cc2c[nH]c3ccccc23)NC(=O)[C@@H](CCCNC(=N)N)NC(=O)[C@@H](Cc2ccccc2)NC(=O)[C@H](CCCNC(=N)N)NC(=O)[C@@H](C)NC1=O [CTX-1282, Arg-cyclo(Cys-D-Ala-Arg-D-Phe-D-Arg-Trp-Cys)] (Ac-RC[dA]R[dF][dR]WC-NH2; disulfide 2-8 (inferred)) | 0.14 | 0.38 | 72 | 4.2 | – | – |
| CCCC[C@H](NC(=O)[C@H](CCCNC(=N)N)NC(C)=O)C(=O)N[C@H]1CSSC[C@@H](C(N)=O)NC(=O)[C@H](Cc2c[nH]c3ccccc23)NC(=O)[C@H](CCCNC(=N)N)NC(=O)[C@@H](Cc2ccc(Br)cc2)NC(=O)[C@H](CCCNC(=N)N)NC1=O [CTX-1612, Arg-Nle-cyclo(Cys-Arg-D-Phe(4-Br)-Arg-Trp-Cys)] (Ac-R[Nle]CR[dPhe(4-Br)]RWC-NH2; disulfide 3-8 (inferred)) | 0.09 | 2.27 | 25 | 27 | 4.5 | 2 |
| CCCC[C@H](NC(=O)[C@H](CCCNC(=N)N)NC(C)=O)C(=O)N[C@H]1CSSC[C@@H](C(N)=O)NC(=O)[C@H](Cc2c[nH]c3ccccc23)NC(=O)[C@H](CCCNC(=N)N)NC(=O)[C@@H](Cc2ccc(OC)cc2)NC(=O)[C@H](CCCNC(=N)N)NC1=O [CTX-1614, Arg-Nle-cyclo(Cys-Arg-D-Tyr(4-OMe)-Arg-Trp-Cys)] (Ac-R[Nle]CR[dY](Me)RWC-NH2; disulfide 3-8 (inferred)) | 0.08 | 1.89 | 41 | 28 | – | 1.7 |
| CC(=O)N[C@@H](CCCNC(=N)N)C(=O)N[C@H]1CSSC[C@@H](C(N)=O)NC(=O)[C@@H](Cc2c[nH]c3ccccc23)NC(=O)[C@H](CCCNC(=N)N)NC(=O)[C@@H](Cc2ccc(Br)cc2)NC(=O)[C@H](CCCNC(=N)N)N(C)C(=O)[C@@H](C)NC1=O [CTX-1248, Arg-cyclo(Cys-D-Ala-NMe-Arg-D-Phe(4-Br)-Arg-D-Trp-Cys)] (Ac-RC[dA][NMeR][dPhe(4-Br)]R[dW]C-NH2; disulfide 2-8 (inferred)) | 1.31 | 1.36 | 47 | 18 | 2.8 | 2 |
| CCCC[C@H](NC(=O)[C@H](CCCNC(=N)N)NC(C)=O)C(=O)N[C@H]1CSSC[C@@H](C(N)=O)NC(=O)[C@@H](Cc2c[nH]c3ccccc23)NC(=O)[C@H](CCCNC(=N)N)NC(=O)[C@@H](Cc2ccc(Br)cc2)NC(=O)[C@H](Cc2c[nH]cn2)NC1=O [CTX-1231, Arg-Nle-cyclo(Cys-His-D-Phe(4-Br)-Arg-D-Trp-Cys)] (Ac-R[Nle]CH[dPhe(4-Br)]R[dW]C-NH2; disulfide 3-8 (inferred)) | 0.19 | 3.04 | 64 | 59 | – | 2.3 |
